Experiments:
C57BL/6J mice [1] = experiment: Thioglycollate peritonitis model, leukocyte counting in peritoneal liquid; type: in vivo, mouse
Protocol: C57BL/6J (The Jackson Laboratory) female mice were chosen for this experiment. The acute inflammation was induced by thioglycollate injection into the abdominal cavity as described by Hoover-Plow J. L. et al. (Strain and model dependent differences in inflammatory cell recruitment in mice. Inflammation Research, 2008. 57(10): p. 457-463).
Mice were injected intraperitoneally with 0.5 mL of 4% thioglycollate (Becton Dickinson, Cockeysville, MD) and after 6 or 72 hours corresponding to peak neutrophil (6 hours) and macrophage (72 hours) recruitment, peritoneal lavage fluid, and cells were harvested as previously described by Ploplis, V. A. et al. (Plasminogen deficiency differentially affects recruitment of inflammatory cell populations in mice. Blood, 1998. 91(6): p. 2005-2009). The number of neutrophils and macrophages (Tang, L. P. and J. W. Eaton, Fibrin (Ogen) Mediates Acute Inflammatory Responses to Biomaterials. Journal of Experimental Medicine, 1993. 178(6): p. 2147-2156) accumulating in the lavage were determined from the enzyme activity of myeloperoxidase for neutrophils (Himmelhoch, S. R., et al., Purification of myeloperoxidases from the bone marrow of the guinea pig. Biochemistry, 1969. 8(3): p. 914-21) and non-specific esterase for macrophage/monocytes (Torres, J. L., R. S. Rush, and A. R. Main, Physical and chemical characterization of a horse serum carboxylesterase. Arch Biochem Biophys, 1988. 267(1): p. 271-9).
After inducing the inflammation (peritonitis), compound of Formula 2 was injected at a concentration of 12.5 mg/kg (DMSO, 01% in PBS, IP), twice (one day after the other). The next day, mice were sacrificed and the peritoneal liquid was collected from the control and treated mice (n=3 for each group). Two assays were conducted for the estimation of the possible anti-inflammatory effect of compound of Formula 2: leukocyte counting (the total amount and the calculation of the percentage of different leukocyte fractions) and a flow cytometry.

C57BL/6J mice [2] = experiment: MOG35-55/CFA-induced experimental autoimmune encephalomyelitis (EAE); type: in vivo, mouse; conditions: 15 mg/kg SC q3w
Protocol: Female 7-8 weeks old C57BL/6J mice were immunized with an emulsion of MOG35-55 in CFA according to standard protocol, followed by administration of pertussis toxin (PTX) in PBS. After the onset of EAE (9 days), mice were assigned by rolling enrollment to the groups one at a time as they show the first signs of EAE (paralysis score 0.5-1). Treatment group was administered with Formula 2 at 15 mg/kg dose at q3w regiment by SC injections, mock treated (vehicle) control group was administered with similar volume as a treated group. Body weight of animals was determined prior to the experiment and the administered volume of Formula 2 formulation was adjusted according to the body weight. During the experiment, mice body weight and paralysis clinical score was monitored daily.
Mice from all groups were euthanized with isoflurane 24 hours post last dose administration. Two-way ANOVA statistical analysis was performed.

**Q.** With `COC(=O)c1ccc(COc2c(C=C3C(=O)NC(=O)NC3=O)cccc2C(C)(C)C)cc1` [Formula 2, methyl 4-((2-(tert-butyl)-6-((2,4,6-trioxotetrahydropyrimidin-5(2H)-ylidene)methyl)phenoxy)methyl) benzoate] as the molecule, how does the “amount of neutrophils and monocytes” value (C57BL/6J mice [1]; 12.5 mg/kg IP, twice) read?
**A.** not affected

**Q.** What about the “increase of the amount of dendritic cells in the peritoneal liquid” value (C57BL/6J mice [1]; 12.5 mg/kg IP, twice) of the same molecule?
**A.** 2.5 fold

**Q.** And the “reduction of the amount of lymphocytes in the peritoneal liquid” value (C57BL/6J mice [1]; 12.5 mg/kg IP, twice)?
**A.** 85%

**Q.** And the “total amount of leukocytes in the abdominal liquid” value (C57BL/6J mice [1]; 12.5 mg/kg IP, twice)?
**A.** not affected

**Q.** And the “White blood cell (WBC) counts of peritoneal fluids” value (C57BL/6J mice [1]; FIG. 8 legend: 30 μM injected once on the third day, n=6)?
**A.** reduced

**Q.** And the body weight (C57BL/6J mice [2]; by day 20)?
**A.** body weight recovery to that recorded on the onset of the disease

**Q.** What about the “paralysis score, decrease” value (C57BL/6J mice [2]; by day 20) of the same molecule?
**A.** from 2 to 1.5

**Q.** What about the “body weight difference between treated and non-treated group” value (C57BL/6J mice [2]; end of the experiment, average) of the same molecule?
**A.** approximately 4 g

**Q.** And the paralysis score (C57BL/6J mice [2]; starting from day 10)?
**A.** stable
